# Data taken from article PMC6151525, “Investigation of the N-Terminus Amino Function of Arg10-Teixobactin” (Molecules : A Journal of Synthetic Chemistry and Natural …, 2017).
# Like-named read-outs stand apart in the source and are kept apart here.
# How the values were obtained:
# [1] = tested on: Bacillus subtilis ATCC 6051; type: cell-based; settings: ATCC 6051, 24 h
# Experimental: (§1) After the purification and characterization of the new analogs by MALDI-TOF, their antimicrobial activity was tested against two gram-positive bacteria strains, Staphylococcus aureus and Bacillo subtilis, as well as two gram-negative strains, namely Escherichia coli and Pseudomonas aeruginosa (Table 1). […] They were then diluted to reach 512 μg/mL, the highest concentration tested, followed by two-fold serial dilution. […] The MIC was determined using the broth micro dilution method, as described by the Clinical and Laboratory Standards Institute (CLSI) guidelines, using two gram-positive and two gram-negative bacteria strains (Staphylococcus aureus ATCC 29213, Bacillus subtilis ATCC 6051, Escherichia coli ATCC 25922, Pseudomonas aeruginosa ATCC 27853). First, the bacterial strains were sub-cultured onto Mueller Hinton agar and incubated at 37 °C for 24 h before use in the experiments. Stock solutions at 6 mg/mL in 10% DMSO were prepared for analogs 1–4 and 60% DMSO for analogs 5, 6, and 8. Second, two-fold serial dilutions of each drug/compound were made in cation-adjusted Mueller Hinton broth (CAMHB) in a 96-well microtiter plate. The bacterial inoculum was prepared in distilled water, matched to a 0.5 McFarland standard, and added to make a final volume of 200 µL in each microliter well. The plates were incubated for 24 h at 37 °C under aerobic conditions. The MIC was then recorded as the lowest concentration at which no visible growth occurred. Standard drug, media, and bacterial growth control wells were included in each plate. […] The assay was performed in triplicate to confirm the results.
# [2] = tested on: Escherichia coli ATCC 25922; type: cell-based; settings: ATCC 25922, 24 h
# Experimental: as §1
# [3] = tested on: Staphylococcus aureus ATCC 29213; type: cell-based; settings: ATCC 29213, 24 h
# Experimental: as §1
# [4] = tested on: Pseudomonas aeruginosa ATCC 27853; test: MIC, broth microdilution (CLSI); type: cell-based; settings: Gram−, CAMHB, 24 h at 37 °C, two-fold dilutions from 512 µg/mL, triplicate
# Experimental: After the purification and characterization of the new analogs by MALDI-TOF, their antimicrobial activity was tested against two gram-positive bacteria strains, Staphylococcus aureus and Bacillo subtilis, as well as two gram-negative strains, namely Escherichia coli and Pseudomonas aeruginosa (Table 1). […] They were then diluted to reach 512 μg/mL, the highest concentration tested, followed by two-fold serial dilution. […] The MIC was determined using the broth micro dilution method, as described by the Clinical and Laboratory Standards Institute (CLSI) guidelines, using two gram-positive and two gram-negative bacteria strains (Staphylococcus aureus ATCC 29213, Bacillus subtilis ATCC 6051, Escherichia coli ATCC 25922, Pseudomonas aeruginosa ATCC 27853). First, the bacterial strains were sub-cultured onto Mueller Hinton agar and incubated at 37 °C for 24 h before use in the experiments. Stock solutions at 6 mg/mL in 10% DMSO were prepared for analogs 1–4 and 60% DMSO for analogs 5, 6, and 8. Second, two-fold serial dilutions of each drug/compound were made in cation-adjusted Mueller Hinton broth (CAMHB) in a 96-well microtiter plate. The bacterial inoculum was prepared in distilled water, matched to a 0.5 McFarland standard, and added to make a final volume of 200 µL in each microliter well. […] The MIC was then recorded as the lowest concentration at which no visible growth occurred. […]
# [5] = type: physicochemical
# Experimental: The most hydrophobic analogs, 5, 6, and 8, presented several difficulties regarding purification. […] Nevertheless, by washing the solid obtained several times with 30% acetonitrile in water, impurities from the cyclization were removed, as were the protecting groups, and the decanoyl derivative was obtained in good purity (Figure S11). The mixture of compounds 5 and 6 was also a challenge with respect to solubilization. In this case, the addition first of 100 μL of TFA and then 7 mL of acetonitrile, followed by sonication for 15 min, yielded a clear solution. Then, 3 mL of water was added slowly and no precipitation of the compounds was observed. This solution was injected into the semi-preparative HPLC, and the two analogs were separated efficiently.
# After the purification and characterization of the new analogs by MALDI-TOF, their antimicrobial activity was tested against two gram-positive bacteria strains, Staphylococcus aureus and Bacillo subtilis, as well as two gram-negative strains, namely Escherichia coli and Pseudomonas aeruginosa (Table 1). […] They were then diluted to reach 512 μg/mL, the highest concentration tested, followed by two-fold serial dilution.
# [6] = tested on: Staphylococcus aureus ATCC 29213; settings: Gram+; natural teixobactin, reference line of Table 1; cited from earlier work
# Description: Table 1 Minimum Inhibitory Concentration (MIC) (µg/mL) for teixobactin analogs (1–6, 8–10). | column: Gram+ / S. aureus ATCC 29213
# [7] = tested on: Bacillus subtilis ATCC 6051; settings: Gram+; natural teixobactin, reference line of Table 1; cited from earlier work
# Description: Table 1 Minimum Inhibitory Concentration (MIC) (µg/mL) for teixobactin analogs (1–6, 8–10). | column: Gram+ / B. subtilis ATCC 6051
# [8] = tested on: Escherichia coli ATCC 25922; settings: Gram−; natural teixobactin, reference line of Table 1; cited from earlier work
# Description: Table 1 Minimum Inhibitory Concentration (MIC) (µg/mL) for teixobactin analogs (1–6, 8–10). | column: Gram− / E. coli ATCC 25922
# [9] = tested on: Pseudomonas aeruginosa ATCC 27853; settings: Gram−; natural teixobactin, reference line of Table 1; cited from earlier work
# Description: Table 1 Minimum Inhibitory Concentration (MIC) (µg/mL) for teixobactin analogs (1–6, 8–10). | column: Gram− / P. aerug ATCC 27853
Compound,Minimum Inhibitory Concentration (MIC) B. subtilis ATCC 6051 [1],Minimum Inhibitory Concentration (MIC) E. coli ATCC 25922 [2],Minimum Inhibitory Concentration (MIC) S. aureus ATCC 29213 [3],solubility in water [5],other results
"CC[C@H](C)[C@H](NC(=O)[C@@H](Cc1ccccc1)NC)C(=O)N[C@@H](CO)C(=O)N[C@H](CCC(N)=O)C(=O)N[C@@H](C(=O)N[C@H](C(=O)N[C@@H](CO)C(=O)N[C@H]1C(=O)N[C@@H](C)C(=O)N[C@@H](CCCNC(=N)N)C(=O)N[C@@H]([C@@H](C)CC)C(=O)O[C@H]1C)[C@@H](C)CC)[C@@H](C)CC [compound 1, N-Me-D-Phe-Arg10-teixobactin]",0.5 µg/mL,64 µg/mL,2 µg/mL,–,Minimum Inhibitory Concentration (MIC) P. aerug ATCC 27853 [4]: NI ^1
"CC[C@H](C)[C@H](NC(=O)[C@H](N)Cc1ccccc1)C(=O)N[C@@H](CO)C(=O)N[C@H](CCC(N)=O)C(=O)N[C@@H](C(=O)N[C@H](C(=O)N[C@@H](CO)C(=O)N[C@H]1C(=O)N[C@@H](C)C(=O)N[C@@H](CCCNC(=N)N)C(=O)N[C@@H]([C@@H](C)CC)C(=O)O[C@H]1C)[C@@H](C)CC)[C@@H](C)CC [compound 2, D-Phe-Arg10-teixobactin]",1 µg/mL,32 µg/mL,2 µg/mL,–,–
"CC[C@H](C)[C@H](NC(=O)[C@@H](Cc1ccccc1)N(C)C)C(=O)N[C@@H](CO)C(=O)N[C@H](CCC(N)=O)C(=O)N[C@@H](C(=O)N[C@H](C(=O)N[C@@H](CO)C(=O)N[C@H]1C(=O)N[C@@H](C)C(=O)N[C@@H](CCCNC(=N)N)C(=O)N[C@@H]([C@@H](C)CC)C(=O)O[C@H]1C)[C@@H](C)CC)[C@@H](C)CC [compound 3, N-Me2-D-Phe-Arg10-teixobactin]",2 µg/mL,128 µg/mL,16 µg/mL,–,–
"CCCCCCCCCCN[C@H](Cc1ccccc1)C(=O)N[C@H](C(=O)N[C@@H](CO)C(=O)N[C@H](CCC(N)=O)C(=O)N[C@@H](C(=O)N[C@H](C(=O)N[C@@H](CO)C(=O)N[C@H]1C(=O)N[C@@H](C)C(=O)N[C@@H](CCCNC(=N)N)C(=O)N[C@@H]([C@@H](C)CC)C(=O)O[C@H]1C)[C@@H](C)CC)[C@@H](C)CC)[C@@H](C)CC [compound 5, N-De-D-Phe-Arg10-teixobactin]",128 µg/mL,–,–,poor solubility in water,–
"CCCCCCCCCCN(CCCCCCCCCC)[C@H](Cc1ccccc1)C(=O)N[C@H](C(=O)N[C@@H](CO)C(=O)N[C@H](CCC(N)=O)C(=O)N[C@@H](C(=O)N[C@H](C(=O)N[C@@H](CO)C(=O)N[C@H]1C(=O)N[C@@H](C)C(=O)N[C@@H](CCCNC(=N)N)C(=O)N[C@@H]([C@@H](C)CC)C(=O)O[C@H]1C)[C@@H](C)CC)[C@@H](C)CC)[C@@H](C)CC [compound 6, N-De2-D-Phe-Arg10-teixobactin]",128 µg/mL,–,–,poor solubility in water,–
"CC[C@H](C)[C@H](NC(=O)[C@@H](Cc1ccccc1)N=C(N(C)C)N(C)C)C(=O)N[C@@H](CO)C(=O)N[C@H](CCC(N)=O)C(=O)N[C@@H](C(=O)N[C@H](C(=O)N[C@@H](CO)C(=O)N[C@H]1C(=O)N[C@@H](C)C(=O)N[C@@H](CCCNC(=N)N)C(=O)N[C@@H]([C@@H](C)CC)C(=O)O[C@H]1C)[C@@H](C)CC)[C@@H](C)CC [compound 10, N-Tmg-D-Phe-Arg10-teixobactin]",64 µg/mL,–,256 µg/mL,–,–
N-Dec-D-Phe-Arg10-teixobactin [compound 8],–,–,–,poor solubility in water,solubility in solvent systems compatible with reverse-phase chromatography [5]: not possible to dissolve
Teixobactin,–,–,–,–,Minimum Inhibitory Concentration (MIC) S. aureus ATCC 29213 [6]: 0.25 µg/mL; Minimum Inhibitory Concentration (MIC) B. subtilis ATCC 6051 [7]: 0.06 µg/mL; Minimum Inhibitory Concentration (MIC) E. coli ATCC 25922 [8]: 25 µg/mL; Minimum Inhibitory Concentration (MIC) P. aerug ATCC 27853 [9]: >32 µg/mL
